In article PMC10947176, “The Antimicrobial Properties of Pd^II− and Ru^II−pyta Complexes” (Chembiochem, 2023):
Where two headings read alike, the source gives them in different places.

Columns and labels:
Assay in all cases: MIC against extended fungal panel
[1] = system: C. glabrata ATCC 90030; format: cell-based, Candida glabrata
Protocol: (§1) The extended panel contained four Candida and two Cryptococcus strains (Table 1).
(§2) Antifungal data collection: Fungi strains were cultured for 3 days on yeast extract‐peptone dextrose (YPD) agar at 30 °C. A yeast suspension of 1×10^6 to 5×10^6 CFU mL^−1 (as determined by OD530) was prepared from five colonies. The suspension was diluted in supplemented YNB and added to each well of the compound‐containing plates giving a final cell density of fungi suspension of 2.5×10^3 CFU mL^−1 and 2 % DMSO. All plates were covered and incubated at 35 °C for 36 h without shaking.
(§3) Two biological replicates x2 technical replicates were conducted on separate days (final n=4).
(§4) Growth inhibition of C. albicans, C. tropicalis and C. glabrata was determined by measuring absorbance at 630 nm (OD630), while the growth inhibition of Cryptococcus spp. and C. auris was determined by measuring the difference in absorbance between 600 and 570 nm (OD600‐570), after the addition of resazurin (0.01 % final concentration) and incubation at 35 °C for 2 h. The absorbance was measured using a Biotek Multiflo Synergy HTX plate reader.
(§5) The percentage of growth inhibition was calculated for each well, using the negative control (media only) and positive control (fungi without inhibitors) on the same plate. […] In addition, the maximal percentage of growth inhibition is reported as D Max, indicating any compounds with marginal activity.

[2] = system: C. neoformans ATCC 208821; format: cell-based, Cryptococcus neoformans
Protocol: as §1, §2, §3, §4, §5

[3] = system: C. auris CBS10913; format: cell-based, Candida auris
Protocol: as §1, §2, §3, §4, §5

[4] = system: C. albicans ATCC 90028; format: cell-based, Candida albicans; conditions: for MIC: Candida albicans, ATCC90028
Protocol: as §1, §2, §3, §4, §5

[5] = system: Candida tropicalis ATCC 750; format: cell-based
Protocol: as §1, §2, §3, §4, §5

[6] = system: C. deuterogattii ATCC 32609; format: cell-based, Cryptococcus deuterogattii
Protocol: as §1, §2, §3, §4, §5

MIC ([1]; Nakaseomyces glabratus, ATCC90030, Table S3, Table 1 values in µM, read-out: MIC, Candida glabrata ATCC 90030): > 104 µM
MIC ([1]; Nakaseomyces glabratus, ATCC90030, range of MICs, n=4, read-out: MIC, C. glabrata ATCC 90030): > 32 µg/mL
MIC ([1]; second Table S4, free ligands, read-out: MIC, Candida glabrata ATCC 90030): > 104 µM
MIC ([2]; Cryptococcus neoformans, ATCC208821, Table S3, Table 1 values in µM, read-out: MIC, Cryptococcus neoformans ATCC 208821): 26.1 µM
MIC ([2]; Cryptococcus neoformans, ATCC208821, range of MICs, n=4, read-out: MIC, C. neoformans ATCC 208821): 8 µg/mL
MIC ([2]; second Table S4, free ligands, read-out: MIC, Cryptococcus neoformans ATCC 208821): 26.1 µM
MIC ([3]; Candidozyma auris, CBS10913, Table S3, Table 1 values in µM, read-out: MIC, Candida auris CBS10913): > 104 µM
MIC ([3]; Candidozyma auris, CBS10913, range of MICs, n=4, read-out: MIC, C. auris CBS10913): ≥ 32 µg/mL
MIC ([3]; second Table S4, free ligands, read-out: MIC, Candida auris CBS10913): > 104 µM
MIC ([4]; Table S3, Table 1 values in µM, read-out: MIC, Candida albicans ATCC 90028): 0.816 to 1.63 µM
MIC ([4]; range of MICs, n=4, read-out: MIC, C. albicans ATCC 90028): 0.25 to 0.5 µg/mL
MIC, Candida albicans ATCC 90028 ([4]; second Table S4, free ligands): 0.816 to 1.63 µM
MIC ([5]; Candida tropicalis, ATCC750, Table S3, Table 1 values in µM): 13.1 µM
MIC ([5]; Candida tropicalis, ATCC750, range of MICs, n=4): 4 µg/mL
MIC ([5]; second Table S4, free ligands): 13.1 µM
MIC ([6]; Cryptococcus deuterogattii, ATCC32609, Table S3, Table 1 values in µM, read-out: MIC, Cryptococcus deuterogattii ATCC 32609): > 104 µM
MIC ([6]; Cryptococcus deuterogattii, ATCC32609, range of MICs, n=4, read-out: MIC, C. deuterogattii ATCC 32609): > 32 µg/mL
MIC ([6]; second Table S4, free ligands, read-out: MIC, Cryptococcus deuterogattii ATCC 32609): > 104 µM
SMILES: OC(Cn1cncn1)(Cn1cncn1)c1ccc(F)cc1F [fluconazole]
